In PMC9900783 (bioRxiv, 2023):
Read-outs that look alike come from different tables or passages of the source.

Columns and labels:
Assay type in all cases: biochemical
Nape-pld [1] = target: T1, Nape-pld (Mus musculus, UniProt Q8BH82); test: fluorogenic PED-A1 hydrolysis assay, activation; conditions: read-out: EC50 μM^b (95% CI)
[2] = target: T2, soluble epoxide hydrolase (sEH) (Homo sapiens, UniProt P34913); test: sEH activity assay kit
T2 sequence (P34913 1-555): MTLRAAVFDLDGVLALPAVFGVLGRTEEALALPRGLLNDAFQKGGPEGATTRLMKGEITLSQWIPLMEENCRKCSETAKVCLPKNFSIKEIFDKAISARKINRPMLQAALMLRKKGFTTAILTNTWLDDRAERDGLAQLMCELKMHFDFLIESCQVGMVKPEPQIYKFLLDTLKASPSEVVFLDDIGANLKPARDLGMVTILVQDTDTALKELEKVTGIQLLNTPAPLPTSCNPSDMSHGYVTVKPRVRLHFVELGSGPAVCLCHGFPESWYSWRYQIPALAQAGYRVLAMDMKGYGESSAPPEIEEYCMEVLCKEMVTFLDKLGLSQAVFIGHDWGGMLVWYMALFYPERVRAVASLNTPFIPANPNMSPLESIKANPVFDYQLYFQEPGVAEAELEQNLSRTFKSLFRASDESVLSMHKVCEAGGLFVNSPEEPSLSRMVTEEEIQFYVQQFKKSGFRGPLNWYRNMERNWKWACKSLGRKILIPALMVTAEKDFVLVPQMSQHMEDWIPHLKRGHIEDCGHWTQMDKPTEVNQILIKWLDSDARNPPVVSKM

NAPE-PLD [3] = target: NAPE-PLD (Homo sapiens, UniProt Q6IQ20); test: recombinant human enzyme, PED-A1 fluorogenic assay, activation
Sequence of NAPE-PLD (Q6IQ20 whole entry): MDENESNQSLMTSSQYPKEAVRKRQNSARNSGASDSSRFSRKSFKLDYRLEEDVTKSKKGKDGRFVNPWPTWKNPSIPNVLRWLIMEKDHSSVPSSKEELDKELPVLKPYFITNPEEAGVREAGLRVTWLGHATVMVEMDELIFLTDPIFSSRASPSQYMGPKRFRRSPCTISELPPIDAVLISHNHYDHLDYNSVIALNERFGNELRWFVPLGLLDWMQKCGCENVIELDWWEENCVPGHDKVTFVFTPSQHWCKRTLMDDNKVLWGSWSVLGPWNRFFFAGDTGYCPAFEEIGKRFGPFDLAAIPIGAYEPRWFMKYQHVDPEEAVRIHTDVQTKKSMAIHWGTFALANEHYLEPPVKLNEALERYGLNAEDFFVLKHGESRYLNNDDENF

Nape-pld [4] = target: T1, Nape-pld; test: fluorogenic PED-A1 hydrolysis assay, activation; conditions: read-out: EC50 μM^b (95% CI); remark: listed apart in the source
Nape-pld [5] = target: T1, Nape-pld; test: fluorogenic PED-A1 hydrolysis assay, activation; conditions: read-out: EC50 μM^b (95% CI); remark: listed apart in the source

T1 sequence (Q8BH82 whole entry): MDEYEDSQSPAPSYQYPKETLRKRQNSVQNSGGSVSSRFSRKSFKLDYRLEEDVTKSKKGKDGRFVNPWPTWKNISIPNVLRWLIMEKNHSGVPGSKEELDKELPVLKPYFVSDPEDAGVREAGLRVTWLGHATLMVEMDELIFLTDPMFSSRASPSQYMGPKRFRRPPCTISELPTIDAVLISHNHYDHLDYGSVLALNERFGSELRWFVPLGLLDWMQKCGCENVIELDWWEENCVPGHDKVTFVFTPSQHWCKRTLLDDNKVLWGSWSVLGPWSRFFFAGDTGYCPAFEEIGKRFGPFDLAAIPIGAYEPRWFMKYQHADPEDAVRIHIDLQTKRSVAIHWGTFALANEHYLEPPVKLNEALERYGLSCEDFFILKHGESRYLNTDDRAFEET

EC50 (Nape-pld [1])	IC50 [2]	EC50 (NAPE-PLD [3])	EC50 (Nape-pld [4])	EC50 (Nape-pld [5])	SMILES
0.3 µM	1200 nM	930 nM			Cc1cc(C)c2sc(NC(=O)C3CCN(S(=O)(=O)c4ccc(F)cc4)CC3)nc2c1 [compound 8, VU534]
		200 nM	0.3 µM		Cc1ccc(C)c2sc(NC(=O)C3CCN(S(=O)(=O)c4ccc(F)cc4)CC3)nc12 [compound 9, VU533]
				0.74 µM	Cc1ccc2nc(NC(=O)C3CCN(S(=O)(=O)c4ccc(Cl)cc4)CC3)sc2c1 [compound 5, VU539]
				0.32 µM	Cc1ccc2nc(NC(=O)C3CCN(S(=O)(=O)c4ccc(F)cc4)CC3)sc2c1 [compound 3, VU486]
